Among the data in patent US12509447B2, “Small molecule compound” (Technoderma Medicines Pte Ltd, priority 2019, dated 2025) are IC50 values, retold here.

Holding throughout (type): biochemical
The target of one assay is JAK1 (Homo sapiens, UniProt P23458). The experiment in a line: Inhibition of JAK kinase activity, EZ Reader microfluidic phosphorylation of peptide substrate: JAK1. To be noted: JAK1 kinase 20 nM; highest final concentration 10 μM, 1:3 serial dilution, 8 points, duplicates. Put shortly:
(§1)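 Microfluidic mobility-shift assay reading fluorescent peptide substrate and product; kinases at 20 nM (JAK1) or 1 nM (JAK2, JAK3, Tyk2) in pH 7.4 HEPES with 10 mM MgCl2, run at room temperature to 20-30% conversion, then stopped with EDTA. Compounds tested from 10 μM top, 1:3 over 8 points in duplicate; IC50 fitted from % conversion.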

The target in a further assay is JAK2 (Homo sapiens, UniProt O60674). The experiment in a line: Inhibition of JAK kinase activity, EZ Reader microfluidic phosphorylation of peptide substrate: JAK2. Conditions: JAK2 kinase 1 nM; highest final concentration 10 μM, 1:3 serial dilution, 8 points, duplicates. Put shortly: as §1
The next assay deals with T1, JAK3 (Homo sapiens, UniProt P52333).
T1 sequence (P52333 1-1124): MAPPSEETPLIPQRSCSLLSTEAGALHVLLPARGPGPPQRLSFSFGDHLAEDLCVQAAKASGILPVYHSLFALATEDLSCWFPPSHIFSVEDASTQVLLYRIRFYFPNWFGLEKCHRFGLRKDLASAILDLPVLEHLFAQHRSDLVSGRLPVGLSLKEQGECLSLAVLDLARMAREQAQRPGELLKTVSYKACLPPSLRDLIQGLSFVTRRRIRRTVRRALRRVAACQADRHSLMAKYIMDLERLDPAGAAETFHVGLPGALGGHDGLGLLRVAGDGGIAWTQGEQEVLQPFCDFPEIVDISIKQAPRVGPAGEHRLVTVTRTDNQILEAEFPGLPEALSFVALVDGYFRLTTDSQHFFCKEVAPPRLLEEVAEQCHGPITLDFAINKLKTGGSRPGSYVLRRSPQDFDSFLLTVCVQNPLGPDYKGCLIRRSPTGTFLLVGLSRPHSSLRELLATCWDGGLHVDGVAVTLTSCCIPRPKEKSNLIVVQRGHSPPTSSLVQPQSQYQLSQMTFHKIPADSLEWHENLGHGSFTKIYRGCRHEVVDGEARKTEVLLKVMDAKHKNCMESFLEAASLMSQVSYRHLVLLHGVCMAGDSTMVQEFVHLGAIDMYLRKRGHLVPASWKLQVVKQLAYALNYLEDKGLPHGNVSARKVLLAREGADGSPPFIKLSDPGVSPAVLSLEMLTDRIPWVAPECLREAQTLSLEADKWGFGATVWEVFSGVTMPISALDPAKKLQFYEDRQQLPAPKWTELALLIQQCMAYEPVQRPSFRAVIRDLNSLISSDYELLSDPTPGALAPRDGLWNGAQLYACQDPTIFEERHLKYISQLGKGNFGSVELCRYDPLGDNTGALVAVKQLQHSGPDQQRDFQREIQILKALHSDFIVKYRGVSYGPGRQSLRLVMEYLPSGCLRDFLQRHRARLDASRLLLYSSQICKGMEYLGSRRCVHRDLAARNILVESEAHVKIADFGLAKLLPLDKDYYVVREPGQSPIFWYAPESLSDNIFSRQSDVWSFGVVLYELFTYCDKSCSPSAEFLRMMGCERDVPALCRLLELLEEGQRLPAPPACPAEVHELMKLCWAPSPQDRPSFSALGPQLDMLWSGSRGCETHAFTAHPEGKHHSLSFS
The experiment in a line: Inhibition of JAK kinase activity, EZ Reader microfluidic phosphorylation of peptide substrate: JAK3. To be noted: JAK3 kinase 1 nM; highest final concentration 10 μM, 1:3 serial dilution, 8 points, duplicates. In short, it runs like this:
as §1

The target in a further assay is Tyk2 (Homo sapiens, UniProt P29597). The experiment in a line: Inhibition of JAK kinase activity, EZ Reader microfluidic phosphorylation of peptide substrate: Tyk2. To be noted: Tyk2 kinase 1 nM; highest final concentration 10 μM, 1:3 serial dilution, 8 points, duplicates. Put shortly: as §1
Tyk2, sequence (P29597 whole entry): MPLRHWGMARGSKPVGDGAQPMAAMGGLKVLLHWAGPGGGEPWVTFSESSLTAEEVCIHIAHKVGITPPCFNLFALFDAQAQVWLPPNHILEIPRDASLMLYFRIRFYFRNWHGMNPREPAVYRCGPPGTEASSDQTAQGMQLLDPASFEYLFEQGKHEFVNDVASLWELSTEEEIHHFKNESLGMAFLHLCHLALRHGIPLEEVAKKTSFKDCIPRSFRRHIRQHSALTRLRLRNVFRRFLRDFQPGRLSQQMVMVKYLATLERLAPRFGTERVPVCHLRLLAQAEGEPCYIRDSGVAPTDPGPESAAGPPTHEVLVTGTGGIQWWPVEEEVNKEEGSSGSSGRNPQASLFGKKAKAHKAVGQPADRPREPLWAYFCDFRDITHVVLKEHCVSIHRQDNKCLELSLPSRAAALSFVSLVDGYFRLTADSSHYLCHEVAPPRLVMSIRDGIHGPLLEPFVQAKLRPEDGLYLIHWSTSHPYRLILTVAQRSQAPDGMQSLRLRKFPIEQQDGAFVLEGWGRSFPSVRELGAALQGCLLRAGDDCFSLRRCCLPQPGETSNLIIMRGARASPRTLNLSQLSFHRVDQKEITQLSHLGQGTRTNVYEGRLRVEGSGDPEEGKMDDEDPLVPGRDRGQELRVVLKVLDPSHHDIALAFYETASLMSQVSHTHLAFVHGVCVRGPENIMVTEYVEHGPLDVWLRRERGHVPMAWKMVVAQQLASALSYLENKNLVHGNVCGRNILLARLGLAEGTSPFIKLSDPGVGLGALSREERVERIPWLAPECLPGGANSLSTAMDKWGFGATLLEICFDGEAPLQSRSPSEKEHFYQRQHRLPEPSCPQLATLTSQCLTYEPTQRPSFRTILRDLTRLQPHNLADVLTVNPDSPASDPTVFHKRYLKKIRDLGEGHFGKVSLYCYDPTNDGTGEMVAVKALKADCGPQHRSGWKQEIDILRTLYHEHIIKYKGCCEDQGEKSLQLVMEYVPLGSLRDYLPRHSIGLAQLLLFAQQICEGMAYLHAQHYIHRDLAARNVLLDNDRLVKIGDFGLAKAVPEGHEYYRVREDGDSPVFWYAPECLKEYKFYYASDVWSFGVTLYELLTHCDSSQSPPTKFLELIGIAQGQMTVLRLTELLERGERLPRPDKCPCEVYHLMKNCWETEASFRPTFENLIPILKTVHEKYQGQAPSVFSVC

JAK1, sequence (P23458 whole entry): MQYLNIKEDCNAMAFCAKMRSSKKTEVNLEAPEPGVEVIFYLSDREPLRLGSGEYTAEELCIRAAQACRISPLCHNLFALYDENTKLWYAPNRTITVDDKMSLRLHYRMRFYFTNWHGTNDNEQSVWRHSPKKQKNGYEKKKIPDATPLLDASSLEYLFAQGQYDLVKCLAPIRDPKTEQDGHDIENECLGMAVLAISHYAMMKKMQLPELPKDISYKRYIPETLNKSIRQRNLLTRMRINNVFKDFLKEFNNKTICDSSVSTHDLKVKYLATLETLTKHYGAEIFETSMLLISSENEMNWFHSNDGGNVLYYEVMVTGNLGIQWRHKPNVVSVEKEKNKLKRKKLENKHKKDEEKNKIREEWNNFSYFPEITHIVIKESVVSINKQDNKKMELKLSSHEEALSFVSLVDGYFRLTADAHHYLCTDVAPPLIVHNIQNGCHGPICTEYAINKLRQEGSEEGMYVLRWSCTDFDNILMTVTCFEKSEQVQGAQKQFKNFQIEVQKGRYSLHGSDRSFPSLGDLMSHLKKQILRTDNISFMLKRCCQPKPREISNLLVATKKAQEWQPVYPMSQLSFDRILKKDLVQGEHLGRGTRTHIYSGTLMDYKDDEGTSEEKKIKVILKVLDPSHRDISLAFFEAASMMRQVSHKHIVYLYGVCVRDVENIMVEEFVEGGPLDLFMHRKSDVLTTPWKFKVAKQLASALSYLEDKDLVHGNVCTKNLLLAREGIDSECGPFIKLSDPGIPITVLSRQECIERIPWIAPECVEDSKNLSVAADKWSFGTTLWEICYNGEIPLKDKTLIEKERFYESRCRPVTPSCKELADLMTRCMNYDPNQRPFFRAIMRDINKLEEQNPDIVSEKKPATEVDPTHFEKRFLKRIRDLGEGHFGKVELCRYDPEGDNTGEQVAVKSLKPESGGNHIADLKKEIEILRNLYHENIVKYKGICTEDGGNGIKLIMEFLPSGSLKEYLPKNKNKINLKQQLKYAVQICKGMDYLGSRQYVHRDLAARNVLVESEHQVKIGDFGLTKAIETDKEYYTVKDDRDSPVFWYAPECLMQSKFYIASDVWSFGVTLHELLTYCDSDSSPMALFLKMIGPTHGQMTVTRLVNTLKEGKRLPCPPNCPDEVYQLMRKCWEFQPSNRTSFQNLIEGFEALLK
JAK2, sequence (O60674 whole entry): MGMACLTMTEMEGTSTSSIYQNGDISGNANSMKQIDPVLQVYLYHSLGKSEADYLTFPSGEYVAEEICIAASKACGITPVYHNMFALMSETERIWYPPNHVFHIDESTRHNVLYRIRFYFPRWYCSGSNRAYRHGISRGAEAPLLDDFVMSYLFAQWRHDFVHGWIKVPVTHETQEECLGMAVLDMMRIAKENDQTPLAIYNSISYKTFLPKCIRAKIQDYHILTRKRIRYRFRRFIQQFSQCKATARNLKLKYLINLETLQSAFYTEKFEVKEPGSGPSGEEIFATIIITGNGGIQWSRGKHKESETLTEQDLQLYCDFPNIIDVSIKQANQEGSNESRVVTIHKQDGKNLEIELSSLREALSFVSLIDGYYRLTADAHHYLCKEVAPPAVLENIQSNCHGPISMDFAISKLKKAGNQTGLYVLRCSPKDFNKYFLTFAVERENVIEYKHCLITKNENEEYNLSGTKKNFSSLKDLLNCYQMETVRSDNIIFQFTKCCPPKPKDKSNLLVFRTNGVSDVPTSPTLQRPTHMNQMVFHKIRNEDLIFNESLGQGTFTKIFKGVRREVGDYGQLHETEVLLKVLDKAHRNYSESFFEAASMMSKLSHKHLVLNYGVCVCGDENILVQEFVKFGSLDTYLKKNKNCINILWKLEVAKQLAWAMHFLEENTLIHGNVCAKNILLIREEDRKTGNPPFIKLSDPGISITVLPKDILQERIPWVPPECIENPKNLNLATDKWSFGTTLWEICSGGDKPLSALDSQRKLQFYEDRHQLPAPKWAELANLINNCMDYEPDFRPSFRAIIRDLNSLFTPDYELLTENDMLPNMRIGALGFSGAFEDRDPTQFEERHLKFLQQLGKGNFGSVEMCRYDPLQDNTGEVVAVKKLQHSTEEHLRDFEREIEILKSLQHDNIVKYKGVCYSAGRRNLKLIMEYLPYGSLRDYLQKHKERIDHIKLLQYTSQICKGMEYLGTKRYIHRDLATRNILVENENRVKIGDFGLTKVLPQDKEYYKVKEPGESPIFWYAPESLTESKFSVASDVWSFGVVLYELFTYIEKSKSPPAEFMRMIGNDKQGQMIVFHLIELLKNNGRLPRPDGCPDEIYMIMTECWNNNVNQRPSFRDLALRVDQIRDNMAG

For the molecule `Cn1cc(Nc2nccc(-c3cnn(C4CN(C(=O)CC#N)C4)c3)n2)cn1` [TDM-180671, 3-(3-(4-(2-((1-methyl-1H-pyrazol-4-yl)amino)pyrimidin-4-yl)-1H-pyrazol-1-yl)azetidin-1-yl)-3-oxopropanenitrile], the IC50 on JAK1, at JAK2, against JAK3 and on Tyk2 was not below 10 µM in each case.

Take `Cn1cc(Nc2nccc(-c3cnn(C4CCN(C(=O)CC(F)(F)F)CC4)c3)n2)cn1` [TDM-180678, 3,3,3-trifluoro-1-(4-(4-(2-((1-methyl-1H-pyrazol-4-yl)amino)pyrimidin-4-yl)-1H-pyrazol-1-yl)piperidin-1-yl)propan-1-one]: the IC50 against JAK1, on JAK2, against JAK3 and against Tyk2 was not below 10 µM each time.

As to `Cn1cc(Nc2cc(-c3cnn(C4CN(C(=O)CC(F)(F)F)C4)c3)ccn2)cn1` [TDM-180636, 3,3,3-trifluoro-1-(3-(4-(2-((1-methyl-1H-pyrazol-4-yl)amino)pyridin-4-yl)-1H-pyrazol-1-yl)azetidin-1-yl)propan-1-one], the IC50 against JAK1, against JAK2, against JAK3 and against Tyk2 was not below 10 µM throughout.

Take `CCS(=O)(=O)N1CC(CC#N)(n2ccc(-c3ccnc(Nc4cnn(C)c4)n3)c2)C1` [TDM-180771, 2-(1-(ethylsulfonyl)-3-(3-(2-((1-methyl-1H-pyrazol-4-yl)amino)pyrimidin-4-yl)-1H-pyrrol-1-yl)azetidinpyridin-3-yl)acetonitrile]: the IC50 is 0.1 to 1 µM against JAK1, less than 0.1 µM against JAK2, 1 to 10 µM against JAK3 and less than 0.1 µM against Tyk2.

As to `Cn1cc(Nc2cc(-c3cnn(C4CN(C(=O)C5CC5)C4)c3)ccn2)cn1` [TDM-180637, cyclopropyl(3-(4-(2-((1-methyl-1H-pyrazol-4-yl)amino)pyridin-4-yl)-1H-pyrazol-1-yl)azetidin-1-yl)ketone], the IC50 at JAK1, against JAK2, against JAK3 and on Tyk2 was not below 10 µM in each case.

As to `C=CCS(=O)(=O)N1CC(CC#N)(n2cc(-c3ccnc(Nc4cnn(C)c4)n3)cn2)C1` [TDM-180800, 2-(1-(allylsulfonyl)-3-(4-(2-((1-methyl-1H-pyrazol-4-yl)amino)pyrimidin-4-yl)-1H-pyrazol-1-yl)azetidin-3-yl)acetonitrile], the IC50 fell in the range of 0.1 to 1 µM at JAK1, 0.1 to 1 µM against JAK2, 1 to 10 µM against JAK3 and 0.1 to 1 µM on Tyk2.

On to `CCCS(=O)(=O)N1CC(CC#N)(n2ccc(-c3ccnc(Nc4cnn(C)c4)n3)c2)C1` [TDM-180785, 2-(3-(3-(2-((1-methyl-1H-pyrazol-4-yl)amino)pyrimidin-4-yl)-1H-pyrrol-1-yl)-1-(propylsulfonyl)azetidinpyridin-3-yl)acetonitrile], for which the half-maximal inhibitory concentration (IC50) at JAK1 is 0.1 to 1 µM; against JAK2 it was 0.1 to 1 µM; against JAK3, not below 10 µM; at Tyk2, 0.1 to 1 µM.

`Cn1cc(Nc2nccc(-c3cnn(C4CCN(C(=O)C5CC5)C4)c3)n2)cn1` (stereo not drawn) [TDM-180652, cyclopropyl(3-(4-(2-((1-methyl-1H-pyrazol-4-yl)amino)pyrimidin-4-yl)-1H-pyrazol-1-yl)pyrrolidin-1-yl)ketone]: the IC50 against JAK1, at JAK2, against JAK3 and against Tyk2 was not below 10 µM throughout.

For the molecule `Cn1cc(Nc2cc(-c3cnn(C4CN(C(=O)CO)C4)c3)ccn2)cn1` [TDM-180644, 2-hydroxy-1-(3-(4-(2-((1-methyl-1H-pyrazol-4-yl)amino)pyridin-4-yl)-1H-pyrazol-1-yl)azetidin-1-yl)ethan-1-one], the IC50 against JAK1, on JAK2, on JAK3 and against Tyk2 was not below 10 µM each time.

On to `Cn1cc(Nc2nccc(-c3cnn(C4(CC#N)CN(C(=O)C5CC5(F)F)C4)c3)n2)cn1` (stereo not drawn) [TDM-180726, 2-(1-(2,2-difluorocyclo-1-carbonyl)-3-(4-(2-((1-methyl-1H-pyrazol-4-yl)amino)pyrimidin-4-yl)-1H-pyrazol-1-yl)azetidin-3-yl)acetonitrile], for which the IC50 on JAK1 fell in the range of 0.1 to 1 µM; against JAK2, 0.1 to 1 µM; on JAK3 it was 1 to 10 µM; at Tyk2, 0.1 to 1 µM.

Consider `Cn1cc(Nc2nccc(-c3cnn(C4(CC#N)CN(C(=O)C5CC5)C4)c3)n2)cn1` [TDM-180753, 2-(1-(cyclopropanecarbonyl)-3-(4-(2-((1-methyl-1H-pyrazol-4-yl)amino)pyrimidin-4-yl)-1H-pyrazol-1-yl)azetidinpyridin-3-yl)acetonitrile], for which the IC50 was 0.1 to 1 µM against JAK1, 1 to 10 µM against JAK2, not below 10 µM on JAK3 and 0.1 to 1 µM at Tyk2.

In the case of `CCCC(=O)N1CCC(n2cc(-c3ccnc(Nc4cnn(C)c4)n3)cn2)CC1` [TDM-180677, 1-(4-(4-(2-((1-methyl-1H-pyrazol-4-yl)amino)pyrimidin-4-yl)-1H-pyrazol-1-yl)piperidin-1-yl)butan-1-one], the half-maximal inhibitory concentration (IC50) against JAK1, against JAK2, on JAK3 and on Tyk2 was not below 10 µM in each case.
